efficacy, logP and chromatographic logP data for 49 molecules are collected here from patent publication US8440836B2, “Heterocyclic alkanol derivatives” (Bayer Intellectual Property GmbH, priority 2010, dated 2013).

In one data set the test system is Sphaerotheca fuliginea. Briefly: Sphaerotheca test (cucumber)/protective. The following applies: cucumber plants, protective spray, 500 ppm active ingredient, evaluation 7 days after inoculation.
Data set [1] in a line: logP by HPLC (EEC Directive 79/831 Annex V.A8). The class given is physicochemical. The note with it: HPLC reversed-phase C18, method [a]: LC-MS, pH 2.7, 0.1% aqueous formic acid / acetonitrile, gradient 10% to 95% acetonitrile.

Protocol for Sphaerotheca fuliginea: • Solvent: 49 parts by weight of N,N-dimethylformamide • Emulsifier: 1 part by weight of alkylaryl polyglycol ether
To produce an appropriate active ingredient formulation, 1 part by weight of active ingredient is mixed with the specified amounts of solvent and emulsifier, and the concentrate is diluted with water to the desired concentration. To test for protective activity, young cucumber plants are sprayed with the formulation of active ingredient at the stated application rate. 1 day after the treatment, the plants are inoculated with a spore suspension of Sphaerotheca fuliginea. The plants are then placed in a greenhouse at 70% relative air humidity and a temperature of 23° C. Evaluation follows 7 days after the inoculation.

In the data set on Sphaerotheca fuliginea, `CC(C)(C)C(O)(CCc1ccc(Cl)cc1)c1cncs1` (stereo not shown) [Compound 5] showed an efficacy of 100%.
`CC(C)(C)C(O)(CCc1ccc(SC(F)(F)F)cc1)c1cncs1` (stereo not shown) [Compound 6] yielded an efficacy in the data set on Sphaerotheca fuliginea of 100%.
`OC(Cc1ccccc1Cl)(c1cncs1)C1(Cl)CC1` (stereo not shown) [Compound 7] showed an efficacy in the data set with Sphaerotheca fuliginea of 83%.
In the case of `CC(CF)(CF)C(O)(COc1ccc(Cl)cc1)c1cncs1` (stereo not shown) [Compound 9], the efficacy in the data set on Sphaerotheca fuliginea amounted to 95%. For the same molecule, the logP result in data set [1] was “logP 2.94^[a]; [M + H]^+ = 348”.
In the data set with Sphaerotheca fuliginea, `OC(COc1ccc(Cl)cc1)(c1cncs1)C1(Cl)CC1` (stereo not shown) [Compound 16] showed an efficacy of 78%.
On the same count and under the same terms, for `CC(C)C(O)(COc1ccc(SC(F)(F)F)cc1)c1cncs1` (stereo not shown) [Compound 17] the value was 93%; for `CC(C)(C)C(O)(CCc1ccc(Cl)cc1)Cc1cncs1` (stereo not shown) [Compound 18], 95%.
In the case of `CC(C)(C)C(O)(COc1ccc(-c2ccc(I)cc2)cc1)c1cncs1` (stereo not shown) [Compound 19], the logP entry in data set [1] is “logP 4.89^[a]; [M + H]^+ = 480”.
In the case of `CC(C)C(O)(COc1ccc(I)cc1)c1cncs1` (stereo not shown) [Compound 21], the efficacy with Sphaerotheca fuliginea amounted to 85%.
On the same count and under the same terms, to `CC(C)C(O)(COc1ccc(Br)cc1)c1cncs1` (stereo not shown) [Compound 22] belongs 96%; to `CC(C)C(O)(COc1ccc(Cl)cc1)c1cncs1` (stereo not shown) [Compound 23], 80%; to `CC1(C(O)(COc2ccccc2Br)c2cncs2)CC1` (stereo not shown) [Compound 24], 83%.
Turning to `CC1(C(O)(COc2cccc(I)c2)c2cncs2)CC1` (stereo not shown) [Compound 26], the efficacy with Sphaerotheca fuliginea is 75%. Also, the logP entry in data set [1] is “logP 3.41^[a]; [M + H]^+ = 402”.
Molecule `CC1(C(O)(COc2cccc(Br)c2)c2cncs2)CC1` (stereo not shown) [Compound 27] registered an efficacy in the data set on Sphaerotheca fuliginea of 93%. Also, the logP entry in data set [1] was “logP 3.24^[a]; [M + H]^+ = 354, 356”.
In turn, `CC(C)(C)C(O)(COc1ccc(Oc2ccc(Br)cc2)cc1)c1cncs1` (stereo not shown) [Compound 28] had an efficacy in the data set with Sphaerotheca fuliginea of 95%. In addition, in data set [1], the logP entry is “logP 4.66^[a]; [M + H]^+ = 448/450”.
In the data set on Sphaerotheca fuliginea, `CC(C)(C)C(O)(COc1ccc(Oc2ccc(Cl)cc2)cc1)c1cncs1` (stereo not shown) [Compound 29] came in with an efficacy of 98%. Besides, the logP result in data set [1] was “logP 4.50^[a]; [M + H]^+ = 404”.
As for `CC(C)(C)C(O)(COc1ccc(-c2ccc(C(F)(F)F)cc2)cc1)c1cncs1` (stereo not shown) [Compound 30], the logP result in data set [1] was “logP 4.62^[a]; [M + H]^+ = 422”.
As to `CC(=O)c1ccc(-c2ccc(OCC(O)(c3cncs3)C(C)(C)C)cc2)cc1` (stereo not shown) [Compound 31], the efficacy with Sphaerotheca fuliginea was found to be 100%.
As for `CC(C)(C)C(O)(COc1ccc(Oc2ccc(C(F)(F)F)cc2)cc1)c1cncs1` (stereo not shown) [Compound 32], in the data set on Sphaerotheca fuliginea, the efficacy came out at 96%. Also, the logP result in data set [1] is “logP 4.63^[a]; [M + H]^+ = 438”.
Taken in the same sequence, the figures for `CC1(C(O)(COc2ccc(Cl)cc2)c2cncs2)CCCCC1` (stereo not shown) [Compound 34] were 99% and “logP 4.25^[a]; [M + H]^+ = 352”.
`CC(C)(C)C(O)(COc1ccc(-c2ccc(Cl)cc2)cc1)c1cncs1` (stereo not shown) [Compound 36]: in the data set on Sphaerotheca fuliginea, the efficacy was determined as 98%. Besides, the logP entry in data set [1] is “logP 4.55^[a]; [M + H]^+ = 388”.
The corresponding values for `CC(C)(C)C(O)(COc1ccc(C2CCCCC2)cc1)c1cncs1` (stereo not shown) [Compound 37] are 100% and “logP 5.21^[a]; [M + H]^+ = 360”.
Taken in the same sequence, the figures for `CC(C)(C)C(O)(COc1ccc(Oc2ccc(F)cc2)cc1)c1cncs1` (stereo not shown) [Compound 38] were 98% and “logP 4.03^[a]; [M + H]^+ = 388”.
The corresponding values for `CC(C)(C)c1ccc(OCC(O)(c2cncs2)C(C)(C)C)cc1` (stereo not shown) [Compound 40] are 90% and “logP 4.39^[a]; [M + H]^+ = 334”.
On to `CC(C)(C)C(O)(COc1cccc(Oc2ccccc2)c1)c1cncs1` (stereo not shown) [Compound 43], for which the logP result in data set [1] was “logP 3.98^[a]; [M + H]^+ = 370”.
Still for that read-out and setting: for `CC1(C(O)(COc2cccc([N+](=O)[O-])c2)c2cncs2)CC1` (stereo not shown) [Compound 45] the value was “logP 2.62^[a]; [M + H]^+ = 321”.
Take `CC(CF)(CF)C(O)(Cc1ccccc1Cl)c1cncs1` (stereo not shown) [Compound 46]: the logP entry in data set [1] was “logP 2.78^[a]; [M + H]^+ = 332”.
With `CC(CF)(CF)C(O)(Cc1ccccc1F)c1cncs1` (stereo not shown) [Compound 47], the logP entry in data set [1] was “logP 2.47^[a]; [M + H]^+ = 316”.
In the case of `CC(C)(C)C(O)(Cc1ccc(F)cc1)c1cncs1` (stereo not shown) [Compound 48], in data set [1] (reversed-phase C18 HPLC column), the chromatographic logP is 2.91.
For the molecule `COc1cc(-c2ccccc2)ccc1OCC(O)(c1cncs1)C(C)(C)C` (stereo not shown) [Compound 49], in data set [1], the logP entry was “logP 4.02^[a]; [M + H]^+ = 384”.
In the data set on Sphaerotheca fuliginea, `CC(C)(C)C(O)(COc1ccc(-c2ccccc2)cc1)c1cncs1` (stereo not shown) [Compound 50] returned an efficacy of 100%. Besides, in data set [1], the logP entry was “logP 4.03^[a]; [M + H]^+ = 354”.
Take `CC1(C(O)(COc2ccccc2I)c2cncs2)CC1` (stereo not shown) [Compound 55]: in data set [1], the logP entry is “logP 3.33^[a]; [M + H]^+ = 402”.
Still for that read-out and setting: for `CC(C)(C)C(O)(COc1ccc(SC(F)(F)Cl)cc1)c1cncs1` (stereo not shown) [Compound 58] the value was “logP 4.23^[a]; [M + H]^+ = 394”.
On the same count and under the same terms, to `OC(Cc1cnc(Cl)s1)(Cc1ccccc1F)C1(Cl)CC1` (stereo not shown) [Compound 59] belongs “logP 4.21^[a]; [M + H]^+ = 346”; to `CC(C)(C)C(O)(COc1ccc(Cl)cc1)Cc1cnc(Cl)s1` (stereo not shown) [Compound 61], “logP 4.68^[a]; [M + H]^+ = 360”; to `CC(C)(C)C(O)(COc1ccc(I)cc1)Cc1cnc(Cl)s1` (stereo not shown) [Compound 62], “logP 5.12^[a]; [M + H]^+ = 452”.
On the same count and under the same terms, to `CC(C)(C)C(O)(COc1ccc(F)cc1)Cc1cnc(Cl)s1` (stereo not shown) [Compound 63] belongs “logP 4.20^[a]; [M + H]^+ = 344”; to `CC(CF)(CF)C(O)(COc1ccc(Cl)cc1)Cc1cnc(Cl)s1` (stereo not shown) [Compound 65], “logP 3.94^[a]; [M + H]^+ = 397”; to `CC(C)(C)C(O)(COc1ccc(F)cc1)Cc1cncs1` (stereo not shown) [Compound 66], “logP 3.16^[a]; [M + H]^+ = 310”.
Take `CC(C)[Si](c1ncc(C(O)(Cc2ccccc2Cl)C2(Cl)CC2)o1)(C(C)C)C(C)C` (stereo not shown) [Compound 68]: in data set [1], the logP result is “logP 7.18^[a]; [M + H]^+ = 455”.
As for `OC(Cc1ccccc1Cl)(c1cnco1)C1(Cl)CC1` (stereo not shown) [Compound 69], the logP result in data set [1] is “logP 2.88^[a]; [M + H]^+ = 299”.
Regarding `CC(C)[Si](c1ncc(C(O)(CCc2ccc(Cl)cc2)C(C)(C)C)o1)(C(C)C)C(C)C` (stereo not shown) [Compound 70], in data set [1], the logP result is “logP 7.36^[a]; [M + H]^+ = 451”.
On the same count and under the same terms, to `CC(C)(C)C(O)(CCc1ccc(Cl)cc1)c1cnco1` (stereo not shown) [Compound 71] belongs “logP 3.45^[a]; [M + H]^+ = 294”.
Same read-out and setting: for `CC(C)(C)C(O)(CCc1ccc([N+](=O)[O-])cc1)c1cncs1` (stereo not shown) [Compound 75] the value was “logP 2.98^[a]; [M + H]^+ = 321”; for `CC(C)(C)C(O)(CCc1ccc(N)cc1)c1cncs1` (stereo not shown) [Compound 76], “logP 1.16; [M + H]^+ = 291”.
The same measure, in the same setting: for `CC(C)(C)c1ccc(CCC(O)(c2cncs2)C(C)(C)C)cc1` (stereo not shown) [Compound 77] the value was “logP 1.98^[a]; [M + H]^+ = 333”; for `CCN(C)C=Nc1ccc(CCC(O)(c2cncs2)C(C)(C)C)cc1` (stereo not shown) [Compound 78], “logP 1.33^[a]; [M + H]^+ = 360”; for `OC(COc1ccc(I)cc1)(c1cncs1)C1(C(F)(F)F)CC1` (stereo not shown) [Compound 81], “logP 3.59^[a]; [M + H]^+ = 456”.
For the molecule `OC(COc1ccc(Br)cc1)(c1cncs1)C1(C(F)(F)F)CC1` (stereo not shown) [Compound 82], the logP result in data set [1] is “logP 3.43^[a]; [M + H]^+ = 408/410”.
